The data set is described as follows: Absorption enhancing effect of co-administered diltiazem hydrochloride on plasma drug concentration after oral administration (Experiment 1). The settings on record: male beagle dogs fasted for 24 hours. In kind it is in vivo. Here is the method: Male beagle dogs (body weight: 12 to 14 kg; one group: 3 to 8 beagle dogs) fasted for 24 hours were used in each groups. A drug having an absolute bioavailability of not more than 20 % and diltiazem hydrochloride were administered orally to the beagle dogs. After one week intervals, the drug only was administered orally to the same beagle dogs. The plasma drug concentration was examined at intervals by TCL densito metry if the drug was timepidium bromide; or by high-peformance liquid chromatography if the drug was tipepidine hibenzate or carbazochrome sodium sulfate. Based on the results obtained above, the absorption enhancing effect of diltiazem hydrochloride was calculated by the following formula; [formula]

Structures are written as SMILES.

Regarding `CN1C2=CC(=O)C(=NNC(N)=O)C=C2CC1S(=O)(=O)O` (stereo not drawn) [Carbazochrome sodium sulfonate, 1-methyl-5-semicarbazono-6-oxo-2,3,5,6-tetrahydroindole-2-sulfonic acid], the Absorption enhancing effect (drug 100 mg with diltiazem hydrochloride 60 mg versus drug only, plasma drug concentration by high-performance liquid chromatography) is listed as 1.9.

Consider `COC1CC(=C(c2cccs2)c2cccs2)C[N+](C)(C)C1` (stereo not drawn) [Timepidium bromide, 1,1-dimethyl-5-methoxy-3-(dithien-2-yl-methylene)-piperidinium halide], for which, for the setting “drug 300 mg with diltiazem hydrochloride 30 mg versus drug only, plasma drug concentration by TLC densitometry”, the Absorption enhancing effect worked out at 2.3.

For `CN1CCCC(=C(c2cccs2)c2cccs2)C1` [Tipepidine hibenzate, 3-(di-2-thienylmethylene)-1-methylpiperidine], the Absorption enhancing effect (drug 50 mg with diltiazem hydrochloride 60 mg versus drug only, plasma drug concentration by high-performance liquid chromatography) stood at 2.1.
